Data as given in patent US20120028917A1, “Use Of N-(4-((3-(2-Amino-4-Pyrimidinyl)-2-Pyridinyl)Oxy)Phenyl)-4-(4-Methyl-2-Thienyl)-1-Phthalazinamine In The Treatment Of Antimitotic Agent Resistant Cancer” (Amgen Inc., priority 2009, published 2012).

Assays:
Experiment in all cases: Antiproliferative assay (ArrayScan VTi)
Assay type in all cases: cell-based
769P = conditions: Homo sapiens; 769P* (Kidney), paclitaxel-resistant; 24 h treatment, then 48 h without compound
Description: (§1) Tumor cells were seeded in a Packard View 96-well plate in 100 μL of appropriate complete media at a density of 3000 or 5000 cells/well depending on the cell line growth kinetics (broadly defined as slow vs. fast). All dilutions were performed using Biomek FX workstation. The next day cells were treated with AMG 900 (11-point dose range 0.156 to 0.0003 μM) with a final DMSO concentration of 0.12% in media. After 24 hours, the media containing compound was removed and the cells were washed with complete media. The cells were then incubated in 100 μL of fresh complete media (without compound) for 48 hours. After 48 hours, the cells were fixed by adding 100 μL of fixation buffer to 100 μL of complete media. The cells were incubated at room temperature for 10 minutes. The fixation buffer was aspirated and the cells were then permeabilized in 100 μL wash buffer for 30 minutes at room temperature followed by the addition of 100 μL of DNA stain buffer and incubated at room temperature for 30 minutes in the dark. Next, the cells were washed with 100 μL of wash buffer and stored in 100 μL 1×PBS at 4 degrees Celsius until analysis. Cellular data was attained by scanning the 96-well plates on an ArrayScan VTi imaging system (Cellomics). Quantification of individual cell nuclear area and intensity was performed based on Hoechst 33342 DNA dye fluorescence. A threshold on the nuclear area based on the DMSO-treated control well was set to quantify the number of normal size nuclei from nuclear debris and polyploidy cells. This threshold value was applied to enumerate the number of normal nuclei in six image fields/well using a magnification of 10×. The dose-concentration curves and EC50 values were calculated using a 4-parameter equation.

CAKI-1 = conditions: Homo sapiens; CAKI-1 (Kidney); 24 h treatment, then 48 h without compound
Description: as §1

A549 = conditions: Homo sapiens; A549 (Lung); 24 h treatment, then 48 h without compound
Description: as §1

NCI-H460 = conditions: Homo sapiens; NCI-H460 (Lung); 24 h treatment, then 48 h without compound
Description: as §1

DU145 = conditions: Homo sapiens, DU-145; DU145 (Prostate); 24 h treatment, then 48 h without compound
Description: as §1

HOP-92 = conditions: Homo sapiens; HOP-92 (Lung); 24 h treatment, then 48 h without compound
Description: as §1

MCF7-p53+ = conditions: Homo sapiens; MCF7-p53+ (Breast); 24 h treatment, then 48 h without compound
Description: as §1

HCT 116_JH_p21−/− = conditions: Homo sapiens; HCT 116_JH_p21−/− (Colon); 24 h treatment, then 48 h without compound
Description: as §1

SNU449 = conditions: Homo sapiens, SNU-449; SNU449* (Liver), paclitaxel-resistant; 24 h treatment, then 48 h without compound
Description: as §1

CAL51 = conditions: Homo sapiens, CAL-51; CAL51 (Breast); 24 h treatment, then 48 h without compound
Description: as §1

PC3 = conditions: Homo sapiens, PC-3; PC3 (Prostate); 24 h treatment, then 48 h without compound
Description: as §1

A498 = conditions: Homo sapiens; A498 (Kidney); 24 h treatment, then 48 h without compound
Description: as §1

MES-SA Dx5 = conditions: Homo sapiens; MES-SA Dx5* (Uterine), paclitaxel-resistant; 24 h treatment, then 48 h without compound
Description: as §1

HT29 = conditions: Homo sapiens, HT-29; HT29 (Colon); 24 h treatment, then 48 h without compound
Description: as §1

BT549 = conditions: Homo sapiens, BT-549; BT549 (Breast); 24 h treatment, then 48 h without compound
Description: as §1

T47D = conditions: Homo sapiens; T47D (Breast); 24 h treatment, then 48 h without compound
Description: as §1

HCT15 = conditions: Homo sapiens, HCT-15; HCT15* (Colon), paclitaxel-resistant; 24 h treatment, then 48 h without compound
Description: as §1

MCF7-p53− = conditions: Homo sapiens; MCF7-p53− (Breast); 24 h treatment, then 48 h without compound
Description: as §1

SK-HEP-1 = conditions: Homo sapiens, SK-HEP1; SK-HEP-1 (Liver); 24 h treatment, then 48 h without compound
Description: as §1

SW620 = conditions: Homo sapiens, SW-620; SW620 (Colon); 24 h treatment, then 48 h without compound
Description: as §1

SK-OV-3 = conditions: Homo sapiens; SK-OV-3 (Ovarian); 24 h treatment, then 48 h without compound
Description: as §1

SK-MEL-2 = conditions: Homo sapiens; SK-MEL-2 (Skin); 24 h treatment, then 48 h without compound
Description: as §1

SW480 = conditions: Homo sapiens; SW480 (Colon); 24 h treatment, then 48 h without compound
Description: as §1

HCT 116_JH_p21+/+ = conditions: Homo sapiens; HCT 116_JH_p21+/+ (Colon); 24 h treatment, then 48 h without compound
Description: as §1

HOP-62 = conditions: Homo sapiens; HOP-62 (Lung); 24 h treatment, then 48 h without compound
Description: as §1

`Cc1csc(-c2nnc(Nc3ccc(Oc4ncccc4-c4ccnc(N)n4)cc3)c3ccccc23)c1` [AMG 900, N-(4-((3-(2-amino-4-pyrimidinyl)-2-pyridinyl)oxy)phenyl)-4-(4-methyl-2-thienyl)-1-phthalazinamine] gave an EC50 (769P) of 2 nM, an EC50 (CAKI-1) of 1 nM and an EC50 (A549) of 1 nM. It also gave an EC50 (NCI-H460) of 1 nM, an EC50 (DU145) of 2 nM and an EC50 (HOP-92) of 2 nM. It also gave an EC50 (MCF7-p53+) of 1 nM, an EC50 (HCT 116_JH_p21−/−) of 1 nM and an EC50 (SNU449) of 2 nM. For the same molecule, the EC50 (CAL51) was 2 nM, the EC50 (PC3) was 2 nM and the EC50 (A498) was 1 nM. It also gave an EC50 (MES-SA Dx5) of 1 nM, an EC50 (HT29) of 5 nM and an EC50 (BT549) of 4 nM. It also gave an EC50 (T47D) of 5 nM, an EC50 (HCT15) of 2 nM and an EC50 (MCF7-p53−) of 3 nM. The EC50 (SK-HEP-1) was 1 nM, the EC50 (SW620) was 2 nM and the EC50 (SK-OV-3) was 2 nM. The EC50 (SK-MEL-2) was 2 nM, the EC50 (SW480) was 2 nM and the EC50 (HCT 116_JH_p21+/+) was 1 nM. The EC50 (HOP-62) was 2 nM.
